Assay results reported in patent US20220175760A1, “PHARMACEUTICAL FORMULATIONS” (Janssen Pharmaceutica NV, priority 2019, published 2022).
In brackets after ≈: the same amount, converted by molar mass.

Key:
[1] = Solubility of Compound A in FaSSIF; assay type: physicochemical; settings: 37 °C
Protocol: (§1) A 1% solution of PVPVA64 in FaSSIF was prepared by weighing 2.5 g of PVPVA64 in a volumetric flask and dissolving it in 250 mL FaSSIF at 37° C. The complete volume of the volumetric flask was transferred to a suitable Duran bottle. Afterwards, a highly concentrated solution of Compound A monohydrate (obtained according to Example 1) in NMP was prepared (175 mg/mL). At time zero, 679 μL of the highly concentrated Compound A solution (175 mg/mL) was added to the Duran bottle containing 250 mL FaSSIF+1% PVPVA64 (w/v). The added volume Compound A solution was chosen to obtain a theoretical final concentration of 475.5 μg/mL. This concentration results in a suitable degree of supersaturation of Compound A.

[2] = Crystallisation inhibition: XRPD of the precipitate from a supersaturated solution in FaSSIF + 1% PVPVA64; assay type: physicochemical; settings: Compound A monohydrate in NMP (175 mg/mL) added to FaSSIF + 1% PVPVA64, 475.5 μg/mL (DS 16), 37° C., 2 hours, 300 rpm
Protocol: as §1
A precipitate formed immediately after adding the highly concentrated solution. The mixture was equilibrated at 37° C. for 2 hours while stirring at 300 rpm. After 2 hours, the precipitate was separated from the liquid phase by vacuum filtration. The precipitate was then analyzed with Powder X-Ray Diffraction to check if the API present in the formed precipitate was present as an amorphous or a crystalline form.
X-ray powder diffraction (XRPD) analysis was carried out on a PANalytical (Philips) X'PertPRO MPD diffractometer. The instrument is equipped with a Cu LFF X-ray tube. The compound was spread on a zero-background sample holder

Structure (SMILES): O=C(Nc1ccnc(C(F)(F)F)c1)c1cnn(-c2cccc3c(=O)[nH]ccc23)c1C(F)(F)F [Compound A, 1-(1-oxo-1,2-dihydroisoquinolin-5-yl)-5-(trifluoromethyl)-N-(2-(trifluoromethyl)pyridin-4-yl)-1H-pyrazole-4-carboxamide]
- solubility [1]: 29.7 µg/mL (≈ 63.6 µM)
- Form of the precipitate (amorphous or crystalline) by XRPD [2]: amorphous precipitate
